The text below walks through data of patent publication US6342504B1, “Aromatic heterocyclic derivatives as enzyme inhibitors” (priority 1994, dated 2002).

For this assay, the system named is FeCl3-induced occlusive thrombus in rat carotid artery. The assay can be described thus: Rat model of FeCl3-induced platelet-dependent arterial thrombosis. In kind it is in vivo. From the text:
Rat Model of FeCl3-induced Platelet-dependent Arterial Thrombosis
Kurz, K. D., Main, B. W., and Sandusky, G. E., Thromb. […] In this model a platelet-rich, occlusive thrombus is formed in a segment of the rat carotid artery treated locally with a fresh solution of FeCl3 absorbed to a piece of filter paper. The FeCl3 is thought to diffuse into the treated segment of artery and cause de-endothelialization of the affected vessel surface. […] The effect of a test compound on the incidence of occlusive thrombus formation following the application of the FeCl3 is monitored by ultrasonic flowtometry and is used as the primary end point. The use of flowtometry to measure carotid artery blood flow, is a modification of the original procedure in which thermal detection of clot formation was employed. Kurz, K. D., Main, B. W., and Sandusky, G. E., Thromb.
Male Harlan Sprague Dawley rats (420-450 g) were acclimated at least 72 hours prior to use and fasted for 12 hours prior to surgery with free access to water. The animals were prepared, anesthetized with Nembutal followed by the insertion of catheters for blood pressure monitoring, drug and anesthesia delivery. The left carotid artery was isolated by making a midline cervical incision followed by blunt dissection and spreading techniques to separate a 2 cm segment of the vessel from the carotid sheath. A silk suture is inserted under the proximal and distal ends of the isolated vessel to provide clearance for the placement of a ultrasonic flow probe (Transonic) around the proximal end of the vessel. The probe is then secured with a stationary arm.
The test compound was administered as a single intravenous bolus at the doses outlined in Table 4 after placement of the flow probe and 5 minutes prior to the thrombogenic stimulus. At t=0, a 3 mm diameter piece of filter paper (Whatman #3) soaked with 10 microliters of a 35% solution of fresh FeCl3 (made up in water) was applied the segment of isolated carotid artery distal to the flow probe. Blood pressure, blood flow, heart rate, and respiration were monitored for 60 minutes.
The incidence of occlusion (defined as the attainment of zero blood flow) was recorded as the primary end point.
This allows a direct comparison of the antithrombotic efficacy of [3-[(benzylsulfonyl)amino]-2-oxo-1,2-dihydropyridyl]acetyl-L-argininal, with other antithrombotic agents which have also been evaluated in this model as described above. Table 5 lists the ED50 values for several well known anticoagulant agents in this model compared to [3-[(benzylsulfonyl)amino]-2-oxo-1,2-dihydropyridyl]acetyl-L-argininal.

With `CC1CNc2c(cccc2S(=O)(=O)N[C@@H](CCCNC(=N)N)C(=O)N2CC[C@@H](C)C[C@@H]2C(=O)O)C1` (stereo partly drawn) [Argatroban, 2R,4R-4-methyl-1-[N-2-(3-methyl-1,2,3,4-tetrahydro-8-quinolinesulfonyl)-L-argininal]-2-piperdinecarboxylic acid, reference compound], under “Rattus norvegicus, read-out: ED50 for thrombus prevention (dose that prevents complete thrombotic occlusion in 50% of animals)”, the ED50 (in general, the dose at which the effect has come halfway, by size or by number of responders) was 3.8 mg/kg. Take Hirulog ™ [reference compound]: under “FeCl3 model of arterial thrombosis in rats”, the “ED50 for thrombus prevention (dose that prevents complete thrombotic occlusion in 50% of animals)” value was 3.0 mg/kg.
